Target: HER2 Kinase (Homo sapiens, UniProt P04626)
Experiment: HER-2 ELISA: EGF receptor-HER2 chimeric receptor assay in whole cells
Format: cell-based
Details: 50% inhibition of PTK activity over control
Method: The cellular/catalytic assays described herein are performed in an ELISA format. […] The cells are lysed and the lysate is transferred to the wells of an ELISA plate previously coated with a specific antibody recognizing the substrate of the enzymatic phosphorylation reaction. Non-substrate components of the cell lysate are washed away and the amount of phosphorylation on the substrate is detected with an antibody specifically recognizing phosphotyrosine compared with control cells that were not contacted with a test compound. HER-2 ELISA […] EGF Receptor-HER2 Chimeric Receptor Assay in Whole Cells. HER2 kinase activity in whole EGFR-NIH3T3 cells are measured as described below: Materials and Reagents. The following materials and reagents can be used to conduct the assay: a. EGF: stock concentration: 16.5 ILM; EGF 201, TOYOBO, Co., Ltd. Japan. b. 05-101 (UBI) (a monoclonal antibody recognizing an EGFR extracellular domain). c. Anti-phosphotyrosine antibody (anti-Ptyr) (polyclonal)(see, Fendley, et al., supra). d. Detection antibody: Goat anti-rabbit lgG horse radish peroxidase conjugate, TAGO, Inc., Burlingame, Calif. e. TBST buffer: [table] f. HNTG 5×stock: [table] g. ABTS stock: [table] h. Stock reagents of: [table] Procedure. The following protocol is used: A. Pre-coat ELISA Plate […] Coat ELISA plates (Corning, 96 well, Cat. #25805-96) with 05-101 antibody at 0.5 µg per well in PBS, 100 μL final volume/well, and store overnight at 4° C. Coated plates are good for up to 10 days when stored at 4° C. 2. On day of use, remove coating buffer and replace with 100 μL blocking buffer (5% Carnation Instant Non-Fat Dry Milk in PBS). Incubate the plate, shaking, at room temperature (about 23° C. to 25° C.) for 30 minutes. Just prior to use, remove blocking buffer and wash plate 4 times with TBST buffer. B. Seeding Cells […] An NIH3T3 cell line overexpressing a chimeric receptor containing the EGFR extracellular domain and intracellular HER2 kinase domain can be used for this assay. 2. Choose dishes having 80-90% confluence for the experiment. […]

HER2 Kinase, sequence (P00533 25-645): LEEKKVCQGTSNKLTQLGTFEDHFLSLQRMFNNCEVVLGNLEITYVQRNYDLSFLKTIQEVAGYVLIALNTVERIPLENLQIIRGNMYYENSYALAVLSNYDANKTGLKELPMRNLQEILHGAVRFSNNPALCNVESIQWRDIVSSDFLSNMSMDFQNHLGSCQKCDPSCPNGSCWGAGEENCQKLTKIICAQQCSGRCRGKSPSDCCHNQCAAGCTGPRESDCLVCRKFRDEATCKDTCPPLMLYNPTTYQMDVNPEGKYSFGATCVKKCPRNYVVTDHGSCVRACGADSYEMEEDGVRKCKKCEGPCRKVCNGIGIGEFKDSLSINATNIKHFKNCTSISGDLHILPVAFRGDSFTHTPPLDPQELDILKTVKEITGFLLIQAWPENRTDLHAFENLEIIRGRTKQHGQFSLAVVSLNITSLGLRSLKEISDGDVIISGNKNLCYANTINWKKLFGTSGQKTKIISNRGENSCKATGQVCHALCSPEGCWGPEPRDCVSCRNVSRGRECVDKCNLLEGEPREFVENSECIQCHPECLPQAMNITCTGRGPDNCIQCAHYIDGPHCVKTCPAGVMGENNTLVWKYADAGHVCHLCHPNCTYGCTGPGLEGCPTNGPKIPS
HER2 Kinase, sequence (P04626 676-1255): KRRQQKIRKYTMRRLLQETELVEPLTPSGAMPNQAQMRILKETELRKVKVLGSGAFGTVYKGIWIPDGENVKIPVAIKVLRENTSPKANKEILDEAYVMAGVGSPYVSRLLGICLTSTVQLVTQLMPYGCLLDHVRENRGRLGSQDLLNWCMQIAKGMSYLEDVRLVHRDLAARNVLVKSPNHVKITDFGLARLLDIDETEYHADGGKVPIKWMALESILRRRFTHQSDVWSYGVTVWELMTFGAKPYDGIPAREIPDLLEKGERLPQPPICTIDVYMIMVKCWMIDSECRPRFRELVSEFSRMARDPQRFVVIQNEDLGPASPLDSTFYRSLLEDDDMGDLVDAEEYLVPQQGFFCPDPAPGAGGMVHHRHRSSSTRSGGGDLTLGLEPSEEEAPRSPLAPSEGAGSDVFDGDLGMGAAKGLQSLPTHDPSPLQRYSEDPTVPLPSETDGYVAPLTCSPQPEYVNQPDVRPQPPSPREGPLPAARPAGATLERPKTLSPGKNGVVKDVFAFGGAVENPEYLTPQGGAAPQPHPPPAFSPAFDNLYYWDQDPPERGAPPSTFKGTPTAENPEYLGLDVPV

Row | SMILES | IC50 [µM]
1 | CCOC(=O)c1c[nH]c(C=C2C(=O)Nc3ccccc32)c1C [3-(4-ethoxycarbonyl-3-methylpyrrol-2-methylidenyl)-2-indolinone] | > 100
2 | CCOC(=O)CCc1c(C(=O)OCC)[nH]c(C=C2C(=O)Nc3ccccc32)c1CC(=O)OCC [3-[2-ethoxycarbonyl-3-(2-ethoxycarbonylethyl)-4-ethoxycarbonylmethyl)pyrrol-5-methylidenyl)-2-indolinone] | > 10
3 | COC(=O)CCc1c[nH]c(C=C2C(=O)Nc3cc(OC)c(OC)cc32)c1C [3-[4-(2-methoxycarbonylethyl)-3-methylpyrrol-2-methylidenyl]-5,6-dimethoxy-2-indolinone] | > 50

Reference: patent US6486185B1, “3-heteroarylidene-2-indolinone protein kinase inhibitors” (Sugen, Inc., priority 1997, dated 2002)
